# Experimental data published in patent US12550923B2, “Allulose syrups” (Tate & Lyle Solutions USA LLC, priority 2015, dated 2026).
# Test: Crystallization stability of seeded allulose syrups
# Type: physicochemical
# Details: 25° C.
# Method: Allulose syrups were prepared at 50, 60, 71, 77, and 85% DS and were equilibrated at 25° C., 15° C. and 4° C. These samples were seeded with ˜0.1% crystalline allulose and crystallization was monitored visually and by change in dry solids of the syrup fraction after 1 month of storage.
# A change in DS greater than 0 indicates crystallization, and a larger number indicates a larger amount of crystallization. […] Therefore, for storage of a crystallization stable syrup at ambient and reduced temperatures, 77% solids or less is desirable. For cool (<25° C.) temperatures, 71% solids or less is more desirable.
structure (smiles),measurement,value
O=C(CO)C(O)C(O)C(O)CO (stereo not shown) [allulose],limit of solubility (DS),~77%
